Patent publication US8802597B2, “Herbicidal pyrimidines” (E I du Pont de Nemours and Company, priority 2003, dated 2014)

Key:
Assay type in all cases: in vivo
[1] = system: Surinam grass (Brachiaria decumbens); assay: Test B pre/postemergence; conditions: for Surinam Grass plant response rating: scale 0 to 100 (0 no effect, 100 complete control)
In short: (§1)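 Under greenhouse conditions, seeded pots and young plants (1- to 4-leaf, 2 to 18 cm) were treated at the same time with test chemicals in a non-phytotoxic solvent mixture containing surfactant. Response was assessed visually after 13 to 15 days, from 0 (no effect) to 100 (complete control).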

[2] = system: barnyardgrass (Echinochloa crus-galli); assay: Test B pre/postemergence
In short: as §1

[3] = system: cocklebur (Xanthium strumarium); assay: Test B pre/postemergence
In short: as §1

[4] = system: corn (Zea mays); assay: Test B pre/postemergence
In short: as §1

[5] = system: crabgrass (Digitaria sanguinalis); assay: Test B pre/postemergence
In short: as §1

[6] = system: giant foxtail (Setaria faberii); assay: Test B pre/postemergence
In short: as §1

[7] = system: lambsquarters (Chenopodium album); assay: Test B pre/postemergence
In short: as §1

[8] = system: morningglory (Ipomoea coccinea); assay: Test B pre/postemergence
In short: as §1

[9] = system: pigweed (Amaranthus retroflexus); assay: Test B pre/postemergence
In short: as §1

[10] = system: velvetleaf (Abutilon theophrasti); assay: Test B pre/postemergence
In short: as §1

[11] = system: wheat (Triticum aestivum); assay: Test B pre/postemergence
In short: as §1

[12] = system: blackgrass (Alopecurus myosuroides); assay: Test B postemergence
In short: as §1

[13] = system: wild oat (Avena fatua); assay: Test B postemergence
In short: as §1

[14] = system: barnyardgrass (Echinochloa crus-galli); assay: Test B flooded paddy test; conditions: Flood, 1000 g ai/ha; scale 0 (no effect) to 100 (complete control)
In short: (§2)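 Plants were grown to the 2-leaf stage before treatment, then kept in a greenhouse for 13 to 15 days. Injury was rated visually against untreated controls on a 0 to 100 scale, where 0 is no effect and 100 is complete control.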

[15] = system: duck salad (Heteranthera limosa); assay: Test B flooded paddy test; conditions: Flood, 1000 g ai/ha; scale 0 to 100
In short: as §2

[16] = system: rice (Oryza sativa); assay: Test B flooded paddy test; conditions: Flood, 1000 g ai/ha; scale 0 to 100
In short: as §2

[17] = system: umbrella sedge (Cyperus difformis); assay: Test B flooded paddy test; conditions: Flood, 1000 g ai/ha; scale 0 to 100
In short: as §2

[18] = Postemergence, 500 g ai/ha, scale 0 to 100
[19] = Postemergence, 125 g ai/ha, scale 0 to 100 (0 no effect, 100 complete control)
[20] = Preemergence, 125 g ai/ha, scale 0 to 100 (0 no effect, 100 complete control)
[21] = Preemergence, 500 g ai/ha, scale 0 to 100 (0 no effect, 100 complete control)
[22] = 125 g ai/ha, scale 0 to 100 (0 no effect, 100 complete control)

CCOC(=O)c1nc(-c2ccc(Cl)cc2)nc(N)c1Br [Compound 37]
Surinam Grass plant response rating ([1]; Postemergence, 125 g ai/ha): 20
Plant response rating, Surinam Grass [1, 18]: 70
Surinam Grass plant response rating ([1]; Preemergence, 500 g ai/ha): 40
Barnyardgrass plant response rating [2, 19]: 0
Plant response rating, Barnyardgrass [2, 18]: 90
Plant response rating, Barnyardgrass [2, 20]: 10
Barnyardgrass plant response rating [2, 21]: 40
Cocklebur plant response rating [3, 19]: 100
Plant response rating, Cocklebur [3, 18]: 100
Plant response rating, Cocklebur [3, 20]: 20
Cocklebur plant response rating [3, 21]: 80
Corn plant response rating [4, 19]: 0
Plant response rating, Corn [4, 18]: 70
Plant response rating, Corn [4, 20]: 0
Corn plant response rating [4, 21]: 10
Crabgrass plant response rating [5, 19]: 60
Plant response rating, Crabgrass [5, 18]: 80
Plant response rating, Crabgrass [5, 20]: 50
Crabgrass plant response rating [5, 21]: 90
Foxtail, Giant plant response rating [6, 19]: 10
Plant response rating, Foxtail, Giant [6, 18]: 60
Plant response rating, Foxtail, Giant [6, 20]: 10
Foxtail, Giant plant response rating [6, 21]: 60
Lambsquarters plant response rating [7, 19]: 100
Plant response rating, Lambsquarters [7, 18]: 100
Plant response rating, Lambsquarters [7, 20]: 100
Lambsquarters plant response rating [7, 21]: 100
Morningglory plant response rating [8, 19]: 90
Plant response rating, Morningglory [8, 18]: 100
Plant response rating, Morningglory [8, 20]: 10
Morningglory plant response rating [8, 21]: 50
Pigweed plant response rating [9, 19]: 100
Plant response rating, Pigweed [9, 18]: 100
Plant response rating, Pigweed [9, 20]: 100
Pigweed plant response rating [9, 21]: 100
Velvetleaf plant response rating [10, 19]: 80
Plant response rating, Velvetleaf [10, 18]: 100
Plant response rating, Velvetleaf [10, 20]: 40
Velvetleaf plant response rating [10, 21]: 80
Wheat plant response rating [11, 19]: 0
Plant response rating, Wheat [11, 18]: 60
Plant response rating, Wheat [11, 20]: 30
Plant response rating, Wheat [11, 21]: 60
Blackgrass plant response rating [12, 22]: 40
Plant response rating, Blackgrass ([12]; 500 g ai/ha, scale 0 to 100): 60
Oat, Wild plant response rating [13, 22]: 0
Plant response rating, Oat, Wild ([13]; 500 g ai/ha, scale 0 to 100): 0
Plant response rating, Barnyardgrass [14]: 20
Plant response rating, Ducksalad [15]: 100
Plant response rating, Rice [16]: 0
Plant response rating, Sedge, Umbrella [17]: 90
